≈ marks a conversion by molar mass, not a printed value. Like-named read-outs stand apart in the source and are kept apart here. Marks after values point to notes of the source that are not given here.
Legend:
Aspergillus fumigatus = experiment: Antifungal susceptibility testing, broth dilution (MIC/MFC); format: cell-based; details: Aspergillus fumigatus, A. fumigatus isolate #1; read-out: MIC
Protocol: (§1) Specifically, disclosed compounds were evaluated alongside commercially available microtubulin inhibitors as well as recognized antifungal agents.
(§2) Microorganisms against which these compounds were tested included: Candida albicans, Candida glabrata, Aspergillus fumigatus, Trichophyton rubrum, Trichophyton mentagrophytes, Epidermophyton floccosum. With the exception of Candida glabrata (one isolate), two isolates of each species were tested.
(§3) The minimum lethal concentration (MLC) was determined by plating […] from the MIC concentration and each concentration above the MIC. […] When a MIC was obtained, a minimum fungicidal concentration (MFC) was determined to assess the fungistatic/fungicidal nature of the compound.

Trichophyton rubrum = experiment: Antifungal susceptibility testing, broth dilution (MIC/MFC); format: cell-based; details: Trichophyton species
Protocol: as §1, §2, §3

HT-29 human colon cells = experiment: Tumor cytotoxicity assay, resazurin fluorescence, 48 h (Example 6); format: cell-based; details: for EC50: Homo sapiens; for cytotoxic activity against HT-29 cells: in words
HT-29 human colon tumor = experiment: HT-29 Human Colon Tumor Xenograft Model; format: in vivo; details: for Chemotherapeutic Agent Result TGI %: CPT-11 alone 100 ip qwx3
Protocol: Selected novel compounds were administered as monotherapy via the intraperitoneal (i.p.) route at the doses indicated for the individual study; for the combination studies the selected reference chemotherapy agents were injected 15-30 min prior to the compound.
Saline dilutions are used to achieve the injection concentrations used for the reference compounds.
Animals were implanted subcutaneously (s.c.) by trocar with fragments of HT-29 tumors harvested from s.c. growing tumors in nude mice hosts. When the tumor size reached 5 mm×5 mm (about 10-17 days) the animals were matched into treatment and control groups. Mice were weighed twice weekly and tumor measurements were obtained using calipers twice weekly, starting on Day 1. The tumor measurements were converted to estimated mg tumor weight using the formula (W^2×L)/2. When the estimated tumor weight of the control group reached an average of 1000 mg the mice were weighed, sacrificed and the tumor removed.

[1] = Colon HT-29 (3 studies), CPT-11 Days 1, 8, 15 alone

Row | SMILES | melting point | further results
1 | CCC(C)n1ncn(-c2ccc(N3CCN(c4ccc(OCC5COC(Cn6cncn6)(c6ccc(Cl)cc6Cl)O5)cc4)CC3)cc2)c1=O (stereo not shown) [itraconazole, Itraconazole, reference compound] |  | MIC (Aspergillus fumigatus): 1 µg/mL (≈ 1.42 µM)
2 | Cc1cccc(/C=c2\[nH]c(=O)/c(=C/c3ncoc3C(C)(C)C)[nH]c2=O)c1C | 167 to 169 °C | 
3 | CC(C)(C)c1ocnc1/C=c1\[nH]c(=O)/c(=C/c2ccc(-c3cccs3)s2)[nH]c1=O [KPU-234, 3-{(Z)-1-[5-(tert-Butyl)-1H-4-oxazolyl]methylidene}-6-[(Z)-1-(2,2′-bithienyl)methlidene]-2,5-piperazinedsione] | 212 to 214 °C | 
4 | CC(C)(C)c1ocnc1/C=c1\[nH]c(=O)/c(=C/c2cccc(OC(F)(F)F)c2)[nH]c1=O [KPU-216, 3-{(Z)-1-[5-(tert-Butyl)-1H-4-oxazolyl]methylidene}-6-[(Z)-1-(3-trifluoromethoxyphenyl)methlidene]-2,5-piperazinedione] | 187 to 189 °C | 
5 | CC(C)(C)c1ocnc1/C=c1\[nH]c(=O)/c(=C/c2cc(Cl)cc(Cl)c2)[nH]c1=O [KPU-209, 3-{(Z)-1-[5-(tert-Butyl)-1H-4-oxazolyl]methylidene}-6-[(Z)-1-(3,5-dichlorophenyl)methlidene]-2,5-piperazinedione] | 202 to 204 °C | 
6 | CC(C)(C)c1ocnc1/C=c1\[nH]c(=O)/c(=C/c2cccc3ccccc23)[nH]c1=O | 168 to 170 °C | 
7 | CC(C)(C)c1ocnc1/C=c1\[nH]c(=O)/c(=C/c2c3ccccc3cc3ccccc23)[nH]c1=O [KPU-231, 3-{(Z)-1-[5-(tert-Butyl)-1H-4-oxazolyl]methylidene}-6-[(Z)-1-(9-anthryl)methlidene]-2,5-piperazinedione] | 274 to 276 °C | 
8 | Cc1ccccc1/C=c1\[nH]c(=O)/c(=C/c2ncoc2C(C)(C)C)[nH]c1=O | 177 to 179 °C | 
9 | CC(C)(C)c1[nH]cnc1/C=C1\NC(=O)[C@H](Cc2ccccc2)NC1=O [t-butylphenylahistin] |  | antifungal potency compared with griseofulvin (Trichophyton rubrum): equivalent in potency or in some cases more potent than griseofulvin
10 | CC(C)(C)c1ocnc1/C=c1\[nH]c(=O)/c(=C/c2ccsc2)[nH]c1=O [KPU-226, 3-{(Z)-1-[5-(tert-Butyl)-1H-4-oxazolyl]methylidene}-6-[(Z)-1-(3-thienyl)methlidene]-2,5-piperazinedione] | 155 to 157 °C | 
11 | COc1ccc2ccccc2c1/C=c1\[nH]c(=O)/c(=C/c2ncoc2C(C)(C)C)[nH]c1=O [KPU-230, 3-{(Z)-1-[5-(tert-Butyl)-1H-4-oxazolyl]methylidene}-6-[(Z)-1-(2-methoxy-1-naphthyl)methlidene]-2,5-piperazinedione] | 234 to 236 °C | 
12 | Cc1oc(-c2ccccc2)cc1/C=c1\[nH]c(=O)/c(=C/c2ncoc2C(C)(C)C)[nH]c1=O | 218 to 220 °C | 
13 | CC(C)(C)c1ocnc1/C=c1\[nH]c(=O)/c(=C/c2cccc(Br)c2)[nH]c1=O [KPU-212, 3-{(Z)-1-[5-(tert-Butyl)-1H-4-oxazolyl]methylidene}-6-[(Z)-1-(3-bromophenyl)methlidene]-2,5-piperazinedione] | 170 to 172 °C | 
14 | CC(C)(C)c1ocnc1/C=c1\[nH]c(=O)/c(=C/c2cccc(F)c2)[nH]c1=O [KPU-202, 3-{(Z)-1-[5-(tert-Butyl)-1H-4-oxazolyl]methylidene}-6-[(Z)-1-(3-fluorophenyl)methylidene]-2,5-piperazinedione] | 143 to 145 °C | 
15 | CC(C)(C)c1ocnc1/C=c1\[nH]c(=O)/c(=C/c2ccc(Cl)o2)[nH]c1=O | 214 to 216 °C | 
16 | CC(C)(C)c1ocnc1/C=c1\[nH]c(=O)/c(=C/c2cc3ccccc3n2S(=O)(=O)c2ccccc2)[nH]c1=O | 145 to 147 °C | 
17 | COc1ccc(/C=c2\[nH]c(=O)/c(=C/c3nc[nH]c3C(C)(C)C)[nH]c2=O)c(OC)c1OC [KPU-17, tBu-ΔPLH-2,3,4-triOMe] |  | antifungal potency compared with griseofulvin (Trichophyton rubrum): equivalent in potency or in some cases more potent than griseofulvin; EC50 (HT-29 human colon cells; HT-29, Table 3, read-out: EC50 (nM) HT-29): 4060 nM; cytotoxic activity against HT-29 cells (HT-29 human colon cells): also showed activity
18 | CCc1c2c(nc3ccc(OC(=O)N4CCC(N5CCCCC5)CC4)cc13)-c1cc3c(c(=O)n1C2)COC(=O)[C@]3(O)CC [CPT-11, Irinotecan, reference compound] |  | Tumor Growth Inhibition (%) Reference Agent (HT-29 human colon tumor; [1]): 37 ± 3%; Tumor Regression (#/total) Reference Agent (HT-29 human colon tumor; [1]): 0/30; Chemotherapeutic Agent Result TGI % (HT-29 human colon tumor; Study 2139): 32.7%; Chemotherapeutic Agent Result TGI % (HT-29 human colon tumor; Study 2164): 39* %; Chemotherapeutic Agent Result TGI % (HT-29 human colon tumor; Study 2288): 36.5* %; TGI vs NCI criterion (HT-29 human colon tumor; study of KPU-2, KPU-35 and t-butyl-phenylahistin +/- CPT-11): did not reach this level
19 | CC(C)(C)c1ocnc1/C=c1\[nH]c(=O)/c(=C/c2cn(S(=O)(=O)c3ccccc3)c3ccccc23)[nH]c1=O [KPU-239, 3-{(Z)-1-[5-(tert-Butyl)-1H-4-oxazolyl]methylidene}-6-[(Z)-1-(phenylsulfonyl-3-indolyl)methlidene]-2,5-piperazinedione] | 133 to 135 °C | 

Row | SMILES | melting point | further results
20 | CC(C)(C)c1ocnc1/C=c1\[nH]c(=O)/c(=C/c2ccccn2)[nH]c1=O | 230 to 232 °C | 
21 | C=Cc1cccc(/C=c2\[nH]c(=O)/c(=C/c3ncoc3C(C)(C)C)[nH]c2=O)c1 | 150 to 152 °C | 
22 | COc1cc(/C=c2\[nH]c(=O)/c(=C/c3nc[nH]c3C(C)(C)C)[nH]c2=O)cc(OC)c1OC [KPU-11, tBu-ΔPLH-3,4,5-triOMe] |  | antifungal potency compared with griseofulvin (Trichophyton rubrum): equivalent in potency or in some cases more potent than griseofulvin; EC50 (HT-29 human colon cells; HT-29, read-out: EC50 HT-29, Table 3, cells printed in μM): > 20000 nM; cytotoxic activity against HT-29 cells (HT-29 human colon cells): also showed activity
23 | Cc1cccc(/C=c2\[nH]c(=O)/c(=C/c3ncoc3C(C)(C)C)[nH]c2=O)c1 | 151 to 153 °C | 
24 | CCOc1cccc(/C=c2\[nH]c(=O)/c(=C/c3ncoc3C(C)(C)C)[nH]c2=O)c1 [KPU-210, 3-{(Z)-1-[5-(tert-Butyl)-1H-4-oxazolyl]methylidene}-6-[(Z)-1-(3-ethoxyphenyl)methlidene]-2,5-piperazinedione] | 124 to 126 °C | 
25 | CC(C)(C)c1ocnc1/C=c1\[nH]c(=O)/c(=C/c2cccs2)[nH]c1=O | 211 to 213 °C | 
26 | CC(C)(C)c1ocnc1/C=c1\[nH]c(=O)/c(=C/c2c(F)c(F)cc(F)c2F)[nH]c1=O [KPU-236, 3-{(Z)-1-[5-(tert-Butyl)-1H-4-oxazolyl]methylidene}-6-[(Z)-1-(2,3,5,6-tetrafluorophenyl)methlidene]-2,5-piperazinedione] | 194 to 196 °C | 
27 | CC(C)(C)c1ocnc1/C=c1\[nH]c(=O)/c(=C/c2cccc(Oc3ccccc3)c2)[nH]c1=O | 171 to 173 °C | 
28 | Cc1ccsc1/C=c1\[nH]c(=O)/c(=C/c2ncoc2C(C)(C)C)[nH]c1=O [KPU-219, 3-{(Z)-1-[5-(tert-Butyl)-1H-4-oxazolyl]methylidene}-6-[(Z)-1-(3-methyl-2-thienyl)methlidene]-2,5-piperazinedione] | 142 to 144 °C | 
29 | CC(C)(C)c1ocnc1/C=c1\[nH]c(=O)/c(=C/c2cc3ccccc3s2)[nH]c1=O | 225 to 227 °C | 
30 | CC(C)(C)c1ocnc1/C=c1\[nH]c(=O)/c(=C/c2ccnc3ccccc23)[nH]c1=O | 106 to 108 °C | 
31 | COc1ccccc1/C=c1\[nH]c(=O)/c(=C/c2ncoc2C(C)(C)C)[nH]c1=O [KPU-224, 3-{(Z)-1-[5-(tert-Butyl)-1H-4-oxazolyl]methylidene}-6-[(Z)-1-(2-methoxyphenyl)methlidene]-2,5-piperazinedione] | 151 to 153 °C | 
32 | CC(C)(C)c1ocnc1/C=c1\[nH]c(=O)/c(=C/c2cc(F)cc3c2OCOC3)[nH]c1=O | 189 to 191 °C | 
33 | CC(C)(C)c1ocnc1/C=c1\[nH]c(=O)/c(=C/c2cccc([N+](=O)[O-])c2)[nH]c1=O | 225 to 227 °C | 
34 | CC(C)(C)c1ocnc1/C=c1\[nH]c(=O)/c(=C/c2ccccc2[N+](=O)[O-])[nH]c1=O [KPU-215, 3-{(Z)-1-[5-(tert-Butyl)-1H-4-oxazolyl]methylidene}-6-[(Z)-1-(2-nitrophenyl)methlidene]-2,5-piperazinedione] | 149 to 151 °C | 
35 | CC(C)(C)c1ocnc1/C=c1\[nH]c(=O)/c(=C/c2cc(F)cc(F)c2F)[nH]c1=O [KPU-235, 3-{(Z)-1-[5-(tert-Butyl)-1H-4-oxazolyl]methylidene}-6-[(Z)-1-(2,3,5-trifluorophenyl)methylidene]-2,5-piperazinedione] | 185 to 187 °C | 
36 | CC(C)(C)c1ocnc1/C=c1\[nH]c(=O)/c(=C/CCc2ccccc2)[nH]c1=O [KPU-228, 3-{(Z)-1-[5-(tert-Butyl)-1H-4-oxazolyl]methylidene}-6-[(Z)-1-(phenylpropyl)methlidene]-2,5-piperazinedione] | 180 to 182 °C | 
37 | CC(C)(C)c1ocnc1/C=c1\[nH]c(=O)/c(=C/c2ccc(Br)o2)[nH]c1=O | 184 to 186 °C | 
